This note sets out measurements from patent publication US8653096B2, “Chemokine receptor antagonists and methods of use thereof” (Millennium Pharmaceuticals, Inc., priority 2001, dated 2014).

A value given as a limit tells only on which side of the number the result lay.

The target of the assay is T1, RANTES/MIP-1α chemokine receptor (CCR1) in THP-1 cell membranes (Homo sapiens, UniProt P32246).
T1 construct: Membranes were prepared from THP-1 cells (ATCC #TIB202); host or cells: THP-1 cells (membrane preparation)
T1 sequence (P32246 1-355): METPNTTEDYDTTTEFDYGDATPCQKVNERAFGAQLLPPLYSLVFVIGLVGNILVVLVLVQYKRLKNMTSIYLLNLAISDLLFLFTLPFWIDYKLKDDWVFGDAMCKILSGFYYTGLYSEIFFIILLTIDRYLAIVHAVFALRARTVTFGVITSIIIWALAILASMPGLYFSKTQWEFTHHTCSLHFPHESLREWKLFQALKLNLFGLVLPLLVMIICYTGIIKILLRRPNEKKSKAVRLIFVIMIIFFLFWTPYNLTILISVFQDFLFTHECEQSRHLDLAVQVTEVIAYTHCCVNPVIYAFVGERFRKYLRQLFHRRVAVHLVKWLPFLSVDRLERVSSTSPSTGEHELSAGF
Nature of the assay: Receptor binding assay: 125I-RANTES or 125I-MIP-1α binding to THP-1 cell membranes. The conditions noted are these: inhibitor concentration required for 50% inhibition of specific binding; 125I-RANTES or 125I-MIP-1α as ligand, THP-1 cell membranes; read-out: IC50.
As to `CC1(C)CN(CCC=C2c3cc(O)ccc3OCc3ncccc32)CCC1(O)c1ccc(Cl)cc1` (centres unmarked) [Example 509, 5-{3-[4-(4-Chloro-phenyl)-4-hydroxy-3,3-dimethyl-piperidin-1-yl]-propylidene}-5,11-dihydro-10-oxa-1-aza-dibenzo[a,d]cyclohepten-7-ol], the IC50 was less than 1 µM.
As for `CC(C)(O)c1ccc2c(c1)C(=CCCN1CCC(NC(=O)Cc3ccc(Cl)cc3)CC1)c1cccnc1CO2` [Example 542, 2-(4-Chloro-phenyl)-N-(1-{3-[7-(1-hydroxy-1-methyl-ethyl)-11H-10-oxa-1-azadibenzo[a,d]cyclohepten-5-ylidene]-propyl}-piperidin-4-yl)-acetamide], the figure is less than 10 µM.
To `CC(C)(O)c1ccc2c(c1)C(=CCCN1CCC(O)(c3ccc(Cl)cc3)CC1)c1ccccc1CO2` [Example 27, 4-(4-Chlorophenyl)-1-[3-(6,11-dihydro-2-(1-hydroxy-1-methyl)ethyldibenz[b,e]oxepin-11-ylidene)propyl]piperidin-4-ol] belongs less than 1 µM.
As for “4-(3-Chlorophenyl)-1-[3-(5,11-dihydro-7-methoxy[1]benzoxepino[2,3-b]pyridin-5-ylidene)propyl]piperidin-4-ol [Example 75]”, the figure is less than 10 µM.
As to “4-(4-Chlorophenyl)-1-[3-(5,11-dihydro-7-ethoxy[1]benzoxepino[2,3-b]pyridin-5-ylidene)propyl]piperidine [Example 152]”, the IC50 was less than 1 µM.
To `OC1(c2ccc(Cl)cc2)CCN(CCC=C2c3cc(Br)ccc3OCc3ccsc32)CC1` [Example 38, 1-[3-(8-Bromo-4,10-dihydrothieno[3,2-c][1]benzoxepin-10-ylidene)propyl]piperidin-4-(4-chlorophenyl)-4-ol] belongs less than 1 µM.
As for `COC(=O)CCN(Cc1ccc(Cl)cc1)C1CCN(CCC=C2c3cc(C(C)(C)O)ccc3OCc3ncccc32)C1` (centres unmarked) [Example 555, 3-[(4-Chloro-benzyl)-(1-{3-[7-(1-hydroxy-1-methyl-ethyl)-11H-10-oxa-1-aza-dibenzo[a,d]cyclohepten-5-ylidene]-propyl}-pyrrolidin-3-yl)-amino]-propionic acid methyl ester], the figure is less than 1 µM.
As for `COC1(c2ccc(Cl)cc2)CCN(CCC=C2c3cc(C(C)(C)O)ccc3OCc3ncccc32)CC1(C)O` (centres unmarked) [Example 473, 4-(4-Chloro-phenyl)-1-{3-[7-(1-hydroxy-1-methyl-ethyl)-11H-10-oxa-1-aza-dibenzo[a,d]cyclohepten-5-ylidene]-propyl}-4-methoxy-3-methyl-piperidin-3-ol], the figure is less than 1 µM; as for `O=C(O)c1ccc2c(c1)C(=CCCN1CCC(O)(c3ccc(Cl)cc3)CC1)c1ccccc1CO2` [Example 24, 1-[3-(2-Carboxyl-6,11-dihydrodibenz[b,e]oxepin-11-ylidene)propyl]-4-(4-chlorophenyl)piperidin-4-ol], less than 10 µM.
With `O=[N+]([O-])c1ccc2c(c1)C(=CCCN1CCC(O)(c3ccc(Cl)cc3)CC1)c1ccccc1CO2` [Example 30, 4-(4-Chlorophenyl)-1-[3-(6,11-dihydro-2-nitrodibenz[b,e]oxepin-11-ylidene)propyl]piperidin-4-ol], the IC50 was less than 1 µM.
As for “1-[3-(5,11-Dihydro-7-methoxy[1]benzoxepino[2,3-b]pyridin-5-ylidene)propyl]-4-(2-furoyl)piperazine [Example 74]”, the figure is less than 1000 µM.
`COC(=O)c1ccc2c(c1)C(=CCCN1CCC(O)(c3ccc(Cl)cc3)CC1)c1ccccc1CO2` [Example 22, 4-(4-Chlorophenyl)-1-[3-(6,11-dihydro-2-methoxycarbonyldibenz[b,e]oxepin-11-ylidene)propyl]piperidin-4-ol]: the 50% inhibitory concentration (IC50) was less than 1 µM.
As for `CCN(Cc1ccc(Cl)cc1)C1CCN(CCC=C2c3cc(C(C)(C)O)ccc3OCc3ncccc32)CC1` [Example 487, 2-[5-(3-{4-[(4-Chloro-benzyl)ethyl-amino]-piperidin-1-yl}-propylidene)-5,11-dihydro-10-oxa-1-aza-dibenzo[a,d]cyclohepten-7-yl]-propan-2-ol], the figure is less than 1 µM.
As for `CC(C)(C)OC(=O)CN1C(=O)c2ccccc2C(=CCCN2CCC(O)(c3ccc(Cl)cc3)CC2)c2ccccc21` [Example 43, 1-[3-(5-tert-Butoxycarbonymethyl-6,11-dihydro-6-oxo-5H-dibenz[b,e]azepin-11-ylidene)propyl]-4-(4-chlorophenyl)-piperidin-4-ol], the figure is less than 10 µM.
With “1-[3-(5,11-Dihydro-7-methoxy[1]benzoxepino[2,3-b]pyridin-5-ylidene)propyl]-4-(2-pyrimidyl)piperazine [Example 72]”, the IC50 was less than 10 µM.
As to `COC(=O)c1ccc2c(c1)C(=CCCN1CCC(O)(c3ccc(Cl)cc3)CC1)c1cccnc1CO2` [Example 273], the IC50 was less than 1 µM.
On to `CC(C)(O)c1ccc2c(c1)C(=CCCN1CCC(C(N)=O)(c3ccc(Cl)cc3)CC1)c1cccnc1CO2` [Example 460, 4-(4-Chloro-phenyl)-1-{3-[7-(1-hydroxy-1-methyl-ethyl)-11H-10-oxa-1-aza-dibenzo[a,d]cyclohepten-5-ylidene]-propyl}-piperidine-4-carboxylic acid amide], for which the IC50 is less than 1 µM.
To `Oc1ccc2c(c1)C(=CCCN1CCC(O)(c3ccc(Cl)cc3)CC1)c1ccccc1CO2` [Example 32, 4-(4-Chlorophenyl)-1-[3-(6,11-dihydro-2-hydroxydibenz[b,e]oxepin-11-ylidene)propyl]piperidin-4-ol] belongs less than 1 µM; to `CC(C)N(Cc1ccc(Cl)cc1)C1CCN(CCC=C2c3cc(C(C)(C)O)ccc3OCc3ncccc32)C1` (centres unmarked) [Example 551, 2-[5-(3-{3-[(4-Chloro-benzyl)-isopropyl-amino]-pyrrolidin-1-yl}-propylidene)-5,11-dihydro-10-oxa-1-aza-dibenzo[a,d]cyclohepten-7-yl]-propan-2-ol], less than 1 µM.
To “4-(4-Chlorophenyl)-1-[3-(5,11-dihydro-7-ethoxycarbonyl-[1]benzoxepino[2,3-b]pyridin-5-ylidene) propyl]piperidine-4-ol [Example 423]” belongs less than 1 µM.
For the compound “4-(5-Chloro-2-keto-1-benzimidazolinyl)-1-[3-(5,11-dihydro-7-methoxy[1]benzoxepino[2,3-b]pyridin-5-ylidene)propyl]piperidine [Example 85]”, the IC50 was less than 1 µM.
To `CC(C)(O)c1ccc2c(c1)C(=CCCN1CCC(N(CCO)Cc3ccc(Cl)cc3)C1)c1cccnc1CO2` (centres unmarked) [Example 554, 2-[5-(3-{3-[(4-Chloro-benzyl)-(2-hydroxy-ethyl)-amino]-pyrrolidin-1-yl}-propylidene)-5,11-dihydro-10-oxa-1-aza-dibenzo[a,d]cyclohepten-7-yl]-propan-2-ol] belongs less than 1 µM; to “4-(4-Chlorophenyl)-1-[3-(5,11-dihydro-7-(1-pyrrolidino)methyl [1]benzoxepino[2,3-b]pyridin-5-ylidene)propyl]piperidin-4-ol [Example 279]”, less than 1 µM; to `CC(=O)N(Cc1ccc(Cl)cc1)C1CCN(CCC=C2c3cc(C(C)(C)O)ccc3OCc3ncccc32)C1` (centres unmarked) [Example 561, N-(4-Chloro-benzyl)-N-(1-{3-[7-(1-hydroxy-1-methyl-ethyl)-11H-10-oxa-1-aza-dibenzo[a,d]cyclohepten-5-ylidene]-propyl}-pyrrolidin-3-yl)-acetamide], less than 10 µM.
To “4-(4-Chlorophenyl)-1-[3-(5,11-dihydro-7-(2-hydroxy)ethyl[1]benzoxepino[2,3-b]pyridin-5-ylidene)propyl]piperidin-4-ol [Example 280]” belongs less than 1 µM.
To “4-(4-Chlorophenyl)-1-[3-(5,11-dihydro-7-(1-ethoxycarbonyl-1-methylethyl)oxy[1]benzoxepino[2,3-b]pyridin-5-ylidene)propyl]piperidine [Example 158]” belongs less than 1 µM; to `CCN(C(=O)Nc1ccc(Cl)cc1)C1CCN(CCC=C2c3cc(C(C)(C)O)ccc3OCc3ncccc32)C1` (centres unmarked) [Example 548, 3-(4-Chloro-phenyl)-1-ethyl-1-(1-{3-[7-(1-hydroxy-1-methyl-ethyl)-11H-10-oxa-1-aza-dibenzo[a,d]cyclohepten-5-ylidene]-propyl}-pyrrolidin-3-yl)-urea], less than 10 µM; to “1-[3-(5,11-Dihydro-7-methoxy[1]benzoxepino[2,3-b]pyridin-5-ylidene)propyl]piperidin-4-ol [Example 61]”, less than 10 µM.
In the case of “4-(4-Chlorophenyl)-1-[3-(5,11-dihydro-7-morpholinocarbonylmethyloxy[1]benzoxepino[2,3-b]pyridin-5-ylidene)propyl]piperidin-4-ol [Example 135]”, the half-maximal inhibitory concentration (IC50) was less than 1 µM.
To “4-(4-Chlorophenyl)-1-[3-(5,11-dihydro-7-isopropoxy[1]benzoxepino[2,3-b]pyridin-5-ylidene)propyl]piperidin-4-ol [Example 47]” belongs less than 1 µM.
For “4-(4-Cyanophenyl)-1-[3-(5,11-dihydro-7-methoxy[1]benzoxepino[2,3-b]pyridin-5-ylidene)propyl]piperidin-4-ol [Example 141]”, the IC50 was less than 1 µM.
As for “4-(4-Chlorophenyl)-1-[3-(5,11-dihydro-7-(2-hydroxyethyl)oxy[1]benzoxepino[2,3-b]pyridin-5-ylidene)propyl]piperidin-4-ol [Example 51]”, the figure is less than 1 µM.

Broadly, the IC50 is the concentration needed to halve the response being measured.
